Assay [1] relates to Saccharomyces cerevisiae MYH500. Briefly: Growth assays for antifungal compounds combined with fluoride: S. cerevisiae. The format is cell-based. Conditions: for fungal growth inhibition compared with NaF: 30 mM and 80 mM, with amphotericin B; for effect of ion on MIC of amphotericin B: tested at 30 mM and 80 mM with amphotericin B; for inhibition of S. cereviciae growth: under the assay conditions, data not shown. The protocol: (§1) Model Organism: Saccharomyces cerevisiae MYH500 [Genotype: his3-del200, leu2-3, ura3-52, lys2-801, trp1-1, gal2]
Methods: • 1. Pick an isolated yeast colony (S. cerevisiae MYH500) from a plate, inoculate into 2 mL YPD medium in a 14 mL snap-cap tube and grow for 12 h at 30° C. on a shaker (200 rpm). The O.D.600 of the culture should be approximately 1.30. • 2. Two growth methods are used. (i) If culturing cells in 14 mL snap-cap tubes, dilute the cells 1:3 (1 vol. of 12 hr cell culture plus 2 vol. medium). Then, inoculate 2 mL YPD medium with 20 μL of 1/3 diluted cells (1% inoculation). […] (ii) For growth curve measurements, culture cells in a honeycomb 2 plate (Oy Growth Curves Ab Ltd) with 400 μL of medium inoculated with 8 μL of 1:6 diluted cells (1% inoculation). […] Supplement a fungicide and/or fluoride in the culture as necessary for each experiment.

Assay [2] deals with Neurospora crassa (FGSC #2225). The assay is described as follows: Growth assays for antifungal compounds combined with fluoride: N. crassa. The format is cell-based. The protocol:
Model Organism: Neurospora crassa (FGSC #2225) [Genotype: N. crassa, A]
Methods: • 1. Recover N. crassa on a slant with minimal medium at 25° C. for 5-6 days to grow spores. • 2. Re-suspend two loops of spores in 2 mL minimal medium. • 3. Inoculate 20 μL into 2 mL minimal medium in an autoclaved 16×150 mm glass tube with cap. • 4. Supplement a fungicide and/or fluoride in the culture as necessary for each experiment. • 5. Grow for 24 h at 25° C. on a shaker (200 rpm).

The subject of assay [3] is Candida albicans (SC5314; ATCC number MYA-2876). The assay is described as follows: Growth assays for amphotericin B combined with fluoride: C. albicans. The format is cell-based. Conditions: for effect on C. albicans growth: liquid medium, 48 hours. The protocol: Organism: Candida albicans (SC5314; ATCC number MYA-2876)
Methods: • 1. Pick an isolated C. albicans yeast colony from a plate, inoculate into 2 mL YPD medium in a 17 mL screw-cap tube and grow for 12 h at 28° C. on a shaker (200 rpm). The O.D.600 of the culture should be approximately 3.6. • 2. Two growth methods were used. (i) If culturing cells in 17 ml screw-cap tubes, dilute the cells 1:5 (1 volume of 12 hr cell culture plus 4 volumes of medium). Inoculate 2 mL YPD medium with 20 μL of 1-to-5 diluted cells (1% inoculation). Incubate at 28° C. and 200 rpm for 9 hours before measuring O.D. (ii) For growth curve measurements, culture cells in a honeycomb 2 plate with 400 μL of medium inoculated with 8 μL of 1-to-10 diluted cells (1% inoculation). Culture for 48 hrs at 28° C., measuring OD600 every 15 m without shaking in the Bioscreen C MBR instrument. • 3. Supplement a fungicide and/or fluoride in the culture as necessary for each experiment.

Assay [4] deals with Saccharomyces cerevisiae MYH500. The assay is described as follows: Fungicidal fluoride assay (colony counts after culture in fluoride). As to conditions: 300 mM fluoride in liquid medium, 160 minute incubation. It counts as cell-based. The protocol:
CrcB proteins are most likely fluoride transporters. The fungal expression of crcB and the subsequent ejection of fluorides from cells is a major mechanism for how these organisms overcome fluoride toxicity. To assess whether fluoride simply halts fungal growth (fungistatic) or kills fungal cells (fungicidal), a culture of Saccharomyces cereviciae and added 300 mM fluoride to the medium was prepared. Samples of this mixture were taken at various times, plated, and the number of resulting colonies were recorded (FIG. 1). […] Therefore, compounds that facilitate the uptake and/or retention of fluoride, or otherwise inhibit the fluoride toxicity mitigation responses of fungi, also function as fungicidal compounds when used in combination with fluoride.
as §1
Medium: YPD (liquid and solid)
• 1. Pick an isolated yeast colony (S. cerevisiae MYH500) from a plate, inoculate into 2 mL YPD medium (liquid) in a 14 mL snap-cap tube and grow for 12 h at 30° C. on a shaker (200 rpm). • 2. Dilute 20 μL of the culture into 2 mL medium and mix. Remove a 20 μL aliquot and transfer to 2 mL YPD medium with 300 mM NaF. Grow at 30° C. on a shaker (200 rpm) for 10, 20, 40, 80, 160 and 240 m. • 3. At each time point, transfer 100 μL culture to an agar plate and distribute. • 4. […]

The test system of assay [5] is Escherichia coli crcB knock-out. Conditions: E. coli crcB knock-out compared to wild-type; cited from earlier work.
The target in assay [6] is T1, crcB fluoride transporter (Escherichia coli, UniProt P37002).
T1 construct: endogenous in cells; host or cells: E. coli cells carrying a fluoride riboswitch beta-galactosidase reporter construct
Briefly: Fluoride riboswitch beta-galactosidase reporter assay in E. coli cells with imipramine. The format is cell-based. The source says: Fluoride riboswitch fused to a beta-galactosidase reporter gene. Construct is present in E. coli cells and cells are exposed to concentrations of sodium fluoride and imipramine (x-axis) as noted in FIG. 10.
On the technique in general: Reporter assays use an easily measured gene product as a stand-in for the process of interest.

Assay [7] concerns Saccharomyces cerevisiae MYH500. Briefly: Growth assays for Novexatin combined with fluoride: S. cerevisiae. The format is cell-based. Conditions: S. cereviciae; for improvement in MIC at about 24 hours: 30 mM NaF, approximately 24 hours (26.25 h). The protocol: as §1
Methods: • 1. Pick an isolated yeast colony (S. cerevisiae MYH500) from a plate, inoculate into 2 mL YPD medium in a 14 mL snap-cap tube and grow for 12 h at 30° C. on a shaker (200 rpm). The O.D.600 of the culture should be approximately 1.30. • 2. For growth curve measurements, culture cells in a honeycomb 2 plate with 80 μL of medium (final volume) inoculated with 2 μL of 1:12 diluted cells. Culture for 48 hrs at 30° C., measuring O.D.600 every 15 m without shaking in the Bioscreen C MBR instrument. • 3. Supplement a fungicide and/or fluoride in the culture as necessary for each experiment.

The values that follow come from patent US9744191B2, “Antimicrobial compositions and methods” (Yale University, priority 2012, dated 2017).

Entries after “also recorded” stand apart in the source; their conditions may differ.

T1 sequence (P37002 whole entry): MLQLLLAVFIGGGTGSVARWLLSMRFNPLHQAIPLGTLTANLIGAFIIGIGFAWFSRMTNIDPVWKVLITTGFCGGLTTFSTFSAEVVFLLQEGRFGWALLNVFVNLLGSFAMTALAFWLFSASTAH

With `[Cl-].[K+]` [KCl], in assay [1], the “fungal growth inhibition compared with NaF” value is listed as “consistently less effective than NaF” and the “effect of ion on MIC of amphotericin B” value is listed as “improve the MIC values of amphotericin B”.

For `[Cl-].[Na+]` [NaCl], in assay [1], the “fungal growth inhibition compared with NaF” value is given as “consistently less effective than NaF” and the “effect of ion on MIC of amphotericin B” value is reported as “improve the MIC values of amphotericin B”.

In the case of `C[C@@H]1[C@H](O)[C@@H](C)/C=C/C=C/C=C/C=C/C=C/C=C/C=C/[C@H](O[C@@H]2O[C@H](C)[C@@H](O)[C@H](N)[C@@H]2O)C[C@@H]2O[C@](O)(C[C@@H](O)C[C@@H](O)[C@H](O)CC[C@@H](O)C[C@@H](O)CC(=O)O[C@H]1C)C[C@H](O)[C@H]2C(=O)O` [amphotericin B], the “effect of combination on growth inhibition” value in assay [1] (10 nM amphotericin B in combination with a range of fluoride concentrations) was “dramatic increase in the growth-inhibition effects of fluoride”. The “effect on cell growth” value in assay [1] (10 nM amphotericin B used alone) was “almost no effect on cell growth”. In addition, the “growth inhibition effect on S. cereviciae” value in assay [1] (20 nM amphotericin B alone) is “almost no growth inhibition effect”. The “improvement in MIC for S. cereviciae” value in assay [1] (30 mM fluoride added to liquid medium) is given as “approximately 10 fold”; in assay [1] (80 mM fluoride), around 30 fold. In addition, the “amphotericin B concentration required to almost completely inhibit growth” value in assay [1] (absence of fluoride, over 48 hours) was 300 nM. Further, in assay [1] (amphotericin B 30 to 70 nM, absence of fluoride), the “effect on S. cereviciae growth” value is “only marginally delay near full growth”. The “amphotericin B concentration required to prevent N. crassa growth” value in assay [2] (amphotericin B tested independently, 24 h) is given as “greater than 300 nM”. Also, the “reduction of MIC for N. crassa” value in assay [2] (combined with 10 mM fluoride) is “at least 4 fold”; in assay [2] (combined with 30 mM fluoride), at least 10 fold. Further, the “MIC for C. albicans” value in assay [3] (medium supplemented with 30 mM fluoride) is around 0.05 µM.

In the case of `[F-].[Na+]` [fluoride, Sodium fluoride], in assay [4], the “loss of cell viability (colonies after plating)” value is reported as “near complete killing”. Besides, the “effect on fungal growth” value is listed as “complete inhibition of growth” in assay [1] (60 mM fluoride combined with 20 nM amphotericin B) and “only a modest effect on fungal growth” in assay [1] (60 mM fluoride tested alone). In addition, the “lengthening of time to near full culture growth” value in assay [1] (80 mM fluoride alone) is on record as “two fold”. For the same compound, the “effect on S. cereviciae growth” value in assay [1] (fluoride alone, 30 mM in liquid medium) was “only marginally affects”. The “fluoride concentration required to completely inhibit fungal growth” value in assay [1] (fluoride alone, 48-hour culture) is above 100 mM. The “fluoride concentration required to completely prevent N. crassa growth” value in assay [2] (fluoride tested independently, 24 h) is “greater than 80 mM”. Besides, the “effect on C. albicans growth” value in assay [3] (100 mM fluoride alone) was “only a modest inhibitory effect”; in assay [3] (300 mM fluoride alone), “completely prevented growth”. The “increase in sensitivity to fluoride of crcB knock-out strain” value in assay [5] was “approximately 200 fold”.

As to `CN(C)CCCN1c2ccccc2CCc2ccccc21` [imipramine, Imipramine], the “reporter gene expression (fluorescence, substrate 4-MUG)” value in assay [6] (330 μM imipramine, E. coli cells with riboswitch-reporter construct, sodium fluoride) was “increased expression of the reporter gene”. Moreover, the “reporter gene expression with imipramine in cells lacking CrcB” value in assay [6] (E. coli cells lacking the gene for fluoride transporter protein CrcB) is “substantially reduced”.

Turning to `CN(C/C=C/C#CC(C)(C)C)Cc1cccc2ccccc12` [terbinafine], the “inhibition of S. cereviciae growth” value in assay [1] is given as “did not significantly inhibit S. cereviciae growth”.

With `Cc1cccc(N(C)C(=S)Oc2ccc3ccccc3c2)c1` [tolnaftate], the “inhibition of S. cereviciae growth” value in assay [1] was “did not significantly inhibit S. cereviciae growth”.

aculeacin A: the “effect of fluoride on inhibition of S. cereviciae growth by the antifungal” value in assay [1] (30 mM fluoride) is “not affected at all; also recorded: lack of an effect”.

In the case of cyclic hepta-arginine [NOVEXATIN®], the “improvement in MIC at about 24 hours” value was “A similar result” in assay [7] and “improvement in MIC” in assay [7] (listed as Novexatin®). Also, in assay [7] (combined with 30 mM fluoride, 48 h), the “improvement in MIC” value is listed as “greater than 3 fold”. Further, the “concentration needed to almost completely prevent fungal growth” value in assay [7] (over 48 hours, no fluoride) is given as 3 mM.
